Structures can show the parent of a compound that is named as a salt.

The assay addresses T1, human thrombin (Homo sapiens, UniProt P00734).
T1 construct: 0.2-0.5 nM human thrombin or human factor Xa; purchased Enzyme Research Laboratories, South Bend, Ind
The assay can be described thus: Inhibition of thrombin hydrolysis of chromogenic substrate S2238 (Ki). As to conditions: S2238, pH 7.5. It is filed as biochemical. On the procedure: The effectiveness of compounds of the present invention as inhibitors of blood coagulation proteases was determined using purified human proteases and synthetic substrates following procedures similar to those described in Kettner et al. (1990).
For these assays, the rate of enzymatic (thrombin, Factor Xa, and Factor VIIa) hydrolysis of chromogenic substrates (S2238 (H-D-Phe-Pip-Arg-pNA), S2222, and S2288, respectively; Kabi Pharmacia, Franklin, Ohio) was measured both in the absence and presence of compounds of the present invention. […] A decrease in the rate of absorbance change at 405 nm in the presence of inhibitor is indicative of enzyme inhibition. The results of this assay are expressed as inhibitory constant, Ki.
Thrombin and Xa determinations were made in 0.10M sodium phosphate buffer, pH 7.5, containing 0.20M NaCl, and 0.5% PEG 8000. VIIa determinations were made in 0.05M tris buffer, pH 7.6, containing 0.10M NaCl, 4 mM CaCl2, and 0.1% bovine serum albumin.
Reactions were allowed to go for 30 minutes and the velocities (rate of absorbance change vs time) were measured in the time frame of 25-30 minutes. The following relationship was used to calculate Ki values. [formula] where: vo is the velocity of the control in the absence of inhibitor;
vs is the velocity in the presence of inhibitor;
I is the concentration of inhibitor;
Ki is the dissociation constant of the enzyme: inhibitor complex;
S is the concentration of substrate;
Km is the Michaelis constant.
Consider `CC(=O)NC(Cc1ccccc1)C(=O)N1CCCC1C(=O)NC(CCCCC(=N)N)B1OC2CC3CC(C3(C)C)C2(C)O1` (stereo not drawn) [Example 2, Ac--(D)Phe--Pro--NH--CH[(CH2)4 --C(NH)NH2]BO2 C10 H16.BSA], for which the Ki was less than 500 nM.

“Ac--Pro--boroPhe(m-CN)--C10 H16 [Example 35]” returned a Ki of less than 50000 nM.

The compound `CC(C)(C)OC(=O)NC(Cc1ccccc1)C(=O)N1CCCC1C(=O)NC(Cc1cccc(C#N)c1)B1OC2CC3CC(C3(C)C)C2(C)O1` (stereo not drawn) [Example 17, Boc--(D)Phe--Pro--boroPhe(m-CN)--C10 H16] returned a Ki of less than 500 nM.

For the compound “Boc--(D)Phe--Pro--boroOrn[C(NCN)SCH3 ]--C10 H16 [Example 107]”, the Ki is less than 500 nM.

`CC1(C)C2CC3OB(C(Cc4cccc(C#N)c4)NC(=O)C4CCCN4C(=O)CSc4ncccn4)OC3(C)C1C2` (stereo not drawn) [Example 41, (2-Pyrimidylthio)acetyl-Pro--boroPhe(m-CN)--C10 H16]: the Ki is less than 500 nM.

Compound “Boc--(D)Phe--Aze--boroOrn(CH=NH)--OH.HCl [Example 74]” registered a Ki of less than 500 nM.

Turning to “N-alpha-[boroOrn(CH=NH)--OH]-(2-trans benzylcarboxamido)-cyclopentane-1-carboxamide.HCl [Example 71]”, the Ki is less than 500 nM.

Consider `CC(C)(C)OC(=O)NC(Cc1ccccc1)C(=O)N1CCCC1C(=O)NC(CC1CCC(N=C(N)N)CC1)B1OC2CC3CC(C3(C)C)C2(C)O1` (stereo not drawn) [Example 128, Boc--(D)Phe--Pro--NH--CH[CH2 (4-guanidino-cyclohexyl)]BO2 --C10 H16], for which the Ki was less than 500 nM.

Take “H--(D)Phe--Pro--boroOrn(CONH2)--C10 H16.HCl [Example 109]”: the Ki was less than 500 nM.

The compound `CN(CC(=O)NC(CCCNC=N)B(O)O)C(=O)C(Cc1ccccc1)NS(=O)(=O)CCc1ccccc1` (stereo not drawn) [Example 69, Phenethyl-SO2 --(D)Phe--Sar--boroOrn(CH=NH)--OH.HCl] showed a Ki of less than 500 nM.

In turn, `CC(=O)NC(Cc1ccccc1)C(=O)N1CCCC1C(=O)NC(Cc1cccc(CN)c1)B1OC2CC3CC(C3(C)C)C2(C)O1` (stereo not drawn) [Example 13, Ac--(D)Phe--Pro--boroPhe--(m-CH2NH2)--C10 H16.HCl] gave a Ki of less than 500 nM.

Turning to `CN(CC(=O)NC(CCCNC=N)B(O)O)C(=O)C(Cc1ccccc1)NC(=O)OC(C)(C)C` (stereo not drawn) [Example 70, Boc--(D)Phe--Sar--boroOrn(CH=NH)--OH.HCl], the Ki was less than 500 nM.

“PhSO2 --(D)Phe--Pro--boroArg(CH3)--OH.HCl [Example 58]”: the Ki is less than 500 nM.

In the case of “Hydrocinnamoyl-Pro--boroArg(CH3)--OH.HCl [Example 55]”, the Ki is less than 500 nM.

Turning to `CC(C)(C)OC(=O)N[C@H](Cc1ccccc1)C(=O)N1CCC[C@H]1C(=O)NC(CC1CCC(N)CC1)B1OC2CC3CC(C3(C)C)C2(C)O1` (stereo partly drawn) [Example 125, Boc--(D)Phe--Pro--NH--CH[CH2 (4-amino-cyclohexyl)]BO2 --C10 H16], the Ki was less than 500 nM.

The compound `CC1(C)C2CC3OB(C(Cc4cccc(C#N)c4)NC(=O)C4CCN4C(=O)C(N)Cc4ccccc4)OC3(C)C1C2` (stereo not drawn) [Example 47, H--(D)Phe--Aze--boroPhe(m-CN)--C10 H16.HCl] came in with a Ki of less than 500 nM.

In turn, “Hydrocinnamoyl-Pro--boroIrg(CH2 CH3)--OH.HBr [Example 53]” showed a Ki of less than 50000 nM.

The compound `CC(=O)NC(Cc1ccccc1)C(=O)N(C)CC(=O)NC(CCCNC=N)B(O)O` (stereo not drawn) [Example 67, Ac--(D)Phe--Sar--boroOrn(CH=NH)--OH.HCl] returned a Ki of less than 500 nM.

`CC(C)(C)OC(=O)NC(Cc1ccccc1)C(=O)N1CCC1C(=O)NC(Cc1cccc(C#N)c1)B1OC2CC3CC(C3(C)C)C2(C)O1` (stereo not drawn) [Example 46, Boc--(D)Phe--Aze--boroPhe(m-CN)--C10 H16]: the Ki is less than 500 nM.

Compound `CC(C)(C)OC(=O)NC(Cc1ccccc1)C(=O)N1CCCC1C(=O)NC(CCCNC(N)=O)B1OC2CC3CC(C3(C)C)C2(C)O1` (stereo not drawn) [Example 108, Boc--(D)Phe--Pro--boroOrn(CONH2)--C10 H16] yielded a Ki of less than 500 nM.

As to `CC1(C)C2CC3OB(C(CCCNS(C)(=O)=O)NC(=O)C4CCCN4C(=O)C(Cc4ccccc4)NS(C)(=O)=O)OC3(C)C1C2` (stereo not drawn) [Example 116, Methanesulfonyl-(D)Phe--Pro--boroOrn(N-Methanesulfonyl)-C10 H16], the Ki is less than 500 nM.

Take `COCCCC(NC(=O)[C@@H]1CCCN1C(=O)[C@@H](Cc1ccccc1)NC(C)C)B1OC2CC3CC(C3(C)C)C2(C)O1` (stereo partly drawn) [Example 143, (CH3)2 CH--(D)--Phe--Pro--boroGly[(CH2)3 --OCH3]--C10 H16]: the Ki was less than 500 nM.

`COCCCC(NC(=O)[C@@H]1CCCN1C(=O)[C@@H](Cc1ccccc1)NC(=O)[C@@H]1CCCN1)B1OC2CC3CC(C3(C)C)C2(C)O1` (stereo partly drawn) [Example 145, H--Pro--(D)--Phe--Pro--boroGly[(CH2)3 --OCH3]--C10 H16] showed a Ki of less than 500 nM.

In turn, “Cbz--(D)Phe--Pro--boroIrg(CH3)--C10 H16.HBr [Example 51]” gave a Ki of less than 500 nM.

In turn, `CNC(=NC#N)NCCCC(NC(=O)C1CCCN1C(=O)C(Cc1ccccc1)NC(=O)OC(C)(C)C)B1OC2CC3CC(C3(C)C)C2(C)O1` (stereo not drawn) [Example 105, Boc--(D)Phe--Pro--boroOrn--[C(NCN)NHCH3]--C10 H16] registered a Ki of less than 500 nM.

With `CC1(C)C2CC3OB(C(Cc4cccc(C#N)c4)NC(=O)C4CCCN4C(=O)CSc4ccncc4)OC3(C)C1C2` (stereo not drawn) [Example 43, (4-Pyridylthio)acetyl-Pro--boroPhe(m-CN)--C10 H16], the inhibition constant Ki was less than 500 nM.

In the case of `CC(C)(C)OC(=O)N[C@H](Cc1ccccc1)C(=O)N1CCCC1C(=O)NC(CC1CCC(O)CC1)B1OC2CC3CC(C3(C)C)C2(C)O1` (stereo partly drawn) [Example 127, Boc--(D)Phe--Pro--NH--CH[CH2 (4-hydroxy-cyclohexyl)]BO2 --C10 H16], the Ki was less than 500 nM.

The compound “Hydrocinnamoyl-Pro--boroIrg(CH2 CH=CH2)--OH.HBr [Example 49]” gave a Ki of more than 500000 nM.

Consider `CN(CC(=O)NC(CCCNC=N)B(O)O)C(=O)C(Cc1ccccc1)NS(C)(=O)=O` (stereo not drawn) [Example 68, Ms--(D)Phe--Sar--boroOrn(CH=NH)--OH.HCI], for which the Ki is less than 500 nM.

Compound “Ac--(D)Phe--Pro--boroIrg(CH3)--OH.HBr [Example 52]” returned an inhibition constant Ki of less than 500 nM.

“H--(D)Phe--Pro--boroPhe(m-CN)--C10 H16.HCl [Example 18]” registered a Ki of less than 500 nM.

With `CC(=O)NC(Cc1ccccc1)C(=O)N1CCCC1C(=O)NC(CCCNC(N)=NC#N)B1OC2CC3CC(C3(C)C)C2(C)O1` (stereo not drawn) [Example 15, Ac--(D)Phe--Pro--boroArg(CN)--C10 H16.HCl], the Ki is less than 500 nM.

For “Boc--(D)Phe--Pro--NH--CH[4-amino-cyclohexyl]BO2 --C10 H16 [Example 126]”, the Ki was less than 500 nM.

“Boc--(D)Phe--Pro--boroOrn(COCH3)--C10 H16 [Example 123]” yielded a Ki of less than 500 nM.

“Ac--(D)--Phe--Pro--boroGly[(CH2)3 --OCH3 ]--C10 H16 [Example 137]” had a Ki of less than 50000 nM.

Compound `CCOCCCC(NC(=O)C1CCCN1C(=O)C(Cc1ccccc1)NC(=O)OC(C)(C)C)B1OC2CC3CC(C3(C)C)C2(C)O1` (stereo not drawn) [Example 121, Boc--(D)Phe--Pro--boroGly[(CH2)3 --OCH2 CH3]--C10 H16] gave a Ki of less than 500 nM.

In turn, `CC(=O)Nc1ccc(S(=O)(=O)NC(Cc2ccccc2)C(=O)N2CCCC2C(=O)NC(CCCNS(C)(=O)=O)B2OC3CC4CC(C4(C)C)C3(C)O2)cc1` (stereo not drawn) [Example 115, 4-(N-Acetyl)Anilinesulfonyl-(D)Phe--Pro--boroOrn(N-Methanesulfonyl)-C10 H16] returned a Ki of less than 500 nM.

As to “PhCH2 SO2 --(D)Phe--Pro--boroOrn(CH=NH)--OH.HCl [Example 62]”, the Ki is less than 500 nM.

Compound `CN(C)[C@H](Cc1ccccc1)C(=O)N1CCCC1C(=O)NC(CCCNS(C)(=O)=O)B1OC2CC3CC(C3(C)C)C2(C)O1` (stereo partly drawn) [Example 117, N,N-dimethyl-(D)Phe--Pro--boroOrn-(N-Methanesulfonyl)-C10 H16.HCl] had a Ki of less than 500 nM.

Turning to `COC(=O)c1cccc(CC(NC(=O)C2CCCN2C(=O)C(N)Cc2ccccc2)B2OC3CC4CC(C4(C)C)C3(C)O2)c1` (stereo not drawn) [Example 135, H--(D)Phe--Pro--boroPhe(mCOOMe)--C10 H16.HCl], the Ki was less than 500 nM.

`CC(=O)NC(Cc1ccccc1)C(=O)N1CCCC1C(=O)NC(Cc1ccc(CN)cc1)B1OC2CC3CC(C3(C)C)C2(C)O1` (stereo not drawn) [Example 21, Ac--(D)Phe--Pro--boroPhe(p-CH2 NH2)--C10 H16.BSA]: the Ki was less than 500 nM.

Compound “H--(D)Phe--Pro--boroOrn(CH=NH)]--C10 H16.0.5 HCl.0.5 BSA [Example 8]” displayed a Ki of less than 500 nM.

For the compound `CC(C)(C)OC(=O)NC(Cc1ccccc1)C(=O)N1CCCC1C(=O)NC(CCCC#N)B1OC2CC3CC(C3(C)C)C2(C)O1` (stereo not drawn) [Example 122, Boc--(D)Phe--Pro--boroGly[(CH2)3 --CN]--C10 H16], the Ki is less than 50000 nM.

Compound “PhCH2 SO2 --(D)Phe--Pro--boroArg(CH3)--OH.HCl [Example 61]” returned a Ki of less than 500 nM.

Compound `CC1(C)C2CC3OB(C(CCCNS(C)(=O)=O)NC(=O)C4CCCN4C(=O)[C@@H](Cc4ccccc4)NCC(=O)O)OC3(C)C1C2` (stereo partly drawn) [Example 119, HOOCCH2 --(D)Phe--Pro--boroOrn(N-Methanesulfonyl)-C10 H16.HCl] returned a Ki of less than 500 nM.
